Experimental data as given in patent publication US20180110780A1, “AGENT FOR ALLEVIATING SIDE EFFECT OF ANTITUMOR DRUG” (TAIHO PHARMACEUTICAL CO., LTD., priority 2015, published 2018).

Tested on: BALB/cA Jcl-nu mice transplanted with human lung cancer cell line NCI-H441
Assay: Toxicity alleviating effect against pemetrexed in tumor-bearing mouse
Conditions: deaths/animals during the test, pemetrexed 50 mg/kg/day, Compound 1 600 mg/kg/day
Description: Cells of a human lung cancer cell line, NCI-H441, were suspended in a PBS containing 50% [sequence], and the suspension was transplanted subcutaneously into the right-side chest of each of 8-week old BALB/cA Jcl-nu mice (Crea-Japan, Inc.) in an amount of 5×10^6 cells/0.1 mL/body. At the time when the average tumor volume after grouping became more than 100 mm^3, the major axis and the minor axis of the tumor were measured, and grouping was performed such that there would be no fluctuations in the tumor volumes of the various groups (6 animals per group). Furthermore, the mice were maintained under conditions of low-folic acid feed breeding from the age of 5 weeks to the day of test completion.
Pemetrexed (manufactured by LC Laboratories, Inc.) was dissolved in physiological saline, and the solution was administered through the caudal vein on Day 1, which was the day after the day of grouping, and on Day 8, which was one week thereafter. Furthermore, Compound 1 was suspended in a 0.5% aqueous solution of hydroxypropylmethyl cellulose, and the suspension was orally administered once a day for 14 consecutive days from the day after the day of grouping. […]
After grouping, the body weights (BW) were measured twice a week, and the rate of bodyweight change (bodyweight change; BWC) was calculated by the following formula, the toxicity alleviating effect was evaluated. […]

## Nc1nc2[nH]cc(CCc3ccc(C(=O)N[C@@H](CCC(=O)O)C(=O)O)cc3)c2c(=O)[nH]1 [Pemetrexed]
  No. of Death: 1/6
Listed as pemetrexed
  No. of Death: one death case out of six animals
